The values that follow come from doi:10.1101/208439v1 (biorxiv, 2017).

Test [1] addresses T1, SET8 (Homo sapiens, UniProt Q9NQR1).
T1 construct: gene KMT5A
T1 sequence (Q9NQR1 1-393): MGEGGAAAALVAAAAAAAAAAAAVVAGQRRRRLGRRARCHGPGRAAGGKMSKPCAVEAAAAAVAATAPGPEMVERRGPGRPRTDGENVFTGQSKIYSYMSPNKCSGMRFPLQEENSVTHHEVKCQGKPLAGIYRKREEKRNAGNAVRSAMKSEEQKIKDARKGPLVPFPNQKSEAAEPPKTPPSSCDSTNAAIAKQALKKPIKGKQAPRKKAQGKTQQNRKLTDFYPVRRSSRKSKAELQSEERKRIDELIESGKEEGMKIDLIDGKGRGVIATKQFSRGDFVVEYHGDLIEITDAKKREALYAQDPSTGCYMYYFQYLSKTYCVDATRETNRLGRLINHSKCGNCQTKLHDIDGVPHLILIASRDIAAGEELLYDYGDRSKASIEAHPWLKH
The test is described as follows: biochemical.

For test [2], the target named is T2, NSD2 SET domain (Homo sapiens, UniProt O96028).
T2 construct: SET domain, residues 934-1241, N-terminal His tag, E. coli
T2 sequence (O96028 934-1241): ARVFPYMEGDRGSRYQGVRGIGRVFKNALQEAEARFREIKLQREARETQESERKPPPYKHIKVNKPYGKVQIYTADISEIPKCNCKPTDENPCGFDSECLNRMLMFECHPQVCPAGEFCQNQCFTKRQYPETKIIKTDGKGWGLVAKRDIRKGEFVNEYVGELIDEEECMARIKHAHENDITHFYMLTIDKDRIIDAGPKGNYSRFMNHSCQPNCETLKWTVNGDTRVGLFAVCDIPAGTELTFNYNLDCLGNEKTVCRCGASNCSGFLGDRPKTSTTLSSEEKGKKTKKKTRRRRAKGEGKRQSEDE
The test is described as follows: biochemical. Further details: Surface plasmon resonance binding to NSD2 SET domain. The procedure:
To support an on-target mechanism of action for the five inhibitors, surface plasmon resonance (SPR) was used to determine whether each inhibitor interacts with the catalytic SET domain of NSD2. […] Chaetocin bound the SET domain with an apparent dissociation constant of 20 nM. Additionally, the data indicated super-stoichiometric binding, which might be due to a binding ratio higher than 1:1 that is consistent with chaetocin’s two disulfide moieties forming adducts with the NSD2 protein, or compound aggregation (data not shown) ([56]).

For test [3], the target named is T3, NSD3 (Homo sapiens, UniProt Q9BZ95).
T3 sequence (Q9BZ95 1021-1322): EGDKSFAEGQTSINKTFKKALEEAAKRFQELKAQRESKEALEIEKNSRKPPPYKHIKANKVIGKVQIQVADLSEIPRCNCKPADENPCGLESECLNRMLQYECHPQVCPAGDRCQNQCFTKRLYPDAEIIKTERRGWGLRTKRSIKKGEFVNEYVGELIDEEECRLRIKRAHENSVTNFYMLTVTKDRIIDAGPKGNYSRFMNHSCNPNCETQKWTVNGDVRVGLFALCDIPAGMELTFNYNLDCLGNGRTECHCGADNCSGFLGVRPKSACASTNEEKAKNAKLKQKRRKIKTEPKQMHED
In words: biochemical.

Test [4] deals with ASH1L (Homo sapiens, UniProt Q9NR48). As to conditions: inhibitor; read-out: Control IC50 (µM), Chaetocin.
Test [5] concerns the target PRMT7 (Homo sapiens, UniProt Q9NVM4). The test is described as follows: biochemical.
Test [6] concerns the target T4, GLP (Homo sapiens, UniProt Q9H9B1).
T4 construct: gene EHMT1
T4 sequence (Q9H9B1 1-1298): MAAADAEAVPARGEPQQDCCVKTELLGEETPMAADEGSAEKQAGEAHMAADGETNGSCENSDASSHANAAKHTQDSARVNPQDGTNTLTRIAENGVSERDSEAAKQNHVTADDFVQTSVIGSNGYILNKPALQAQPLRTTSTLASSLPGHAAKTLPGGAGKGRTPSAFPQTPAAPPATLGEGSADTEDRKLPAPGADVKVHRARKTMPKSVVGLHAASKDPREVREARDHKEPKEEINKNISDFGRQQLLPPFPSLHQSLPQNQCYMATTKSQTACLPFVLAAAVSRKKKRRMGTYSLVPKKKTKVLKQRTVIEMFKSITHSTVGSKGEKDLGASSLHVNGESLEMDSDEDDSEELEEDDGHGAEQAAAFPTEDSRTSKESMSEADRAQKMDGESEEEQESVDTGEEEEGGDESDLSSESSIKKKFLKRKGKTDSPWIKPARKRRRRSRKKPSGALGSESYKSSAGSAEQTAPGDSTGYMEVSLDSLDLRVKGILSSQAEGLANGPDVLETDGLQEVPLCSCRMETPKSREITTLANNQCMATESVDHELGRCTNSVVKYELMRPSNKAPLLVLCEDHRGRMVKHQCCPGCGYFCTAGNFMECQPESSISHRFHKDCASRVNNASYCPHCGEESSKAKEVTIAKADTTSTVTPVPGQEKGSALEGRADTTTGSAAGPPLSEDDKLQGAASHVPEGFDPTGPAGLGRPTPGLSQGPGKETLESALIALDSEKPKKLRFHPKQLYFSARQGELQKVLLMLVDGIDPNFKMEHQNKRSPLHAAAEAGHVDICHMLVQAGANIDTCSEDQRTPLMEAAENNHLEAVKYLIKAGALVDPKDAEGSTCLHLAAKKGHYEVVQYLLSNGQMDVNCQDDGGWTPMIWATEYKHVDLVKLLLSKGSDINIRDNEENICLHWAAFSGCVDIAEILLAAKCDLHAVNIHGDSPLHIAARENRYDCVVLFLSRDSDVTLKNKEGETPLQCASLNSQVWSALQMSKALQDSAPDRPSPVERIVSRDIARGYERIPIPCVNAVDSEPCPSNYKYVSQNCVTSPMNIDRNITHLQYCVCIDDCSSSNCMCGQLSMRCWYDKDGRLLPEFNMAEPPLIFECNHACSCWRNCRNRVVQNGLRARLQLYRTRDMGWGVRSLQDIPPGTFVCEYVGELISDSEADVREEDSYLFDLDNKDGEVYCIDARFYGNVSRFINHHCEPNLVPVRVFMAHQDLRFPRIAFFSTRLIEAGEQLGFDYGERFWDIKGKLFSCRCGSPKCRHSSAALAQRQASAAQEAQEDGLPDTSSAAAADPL
The test is described as follows: biochemical.

Test [7] has as its target T5, NSD1 (Homo sapiens, UniProt Q96L73).
T5 construct: residues 1538-2696, N-terminal His tag, insect cell/baculovirus
T5 sequence (Q96L73 1538-2696): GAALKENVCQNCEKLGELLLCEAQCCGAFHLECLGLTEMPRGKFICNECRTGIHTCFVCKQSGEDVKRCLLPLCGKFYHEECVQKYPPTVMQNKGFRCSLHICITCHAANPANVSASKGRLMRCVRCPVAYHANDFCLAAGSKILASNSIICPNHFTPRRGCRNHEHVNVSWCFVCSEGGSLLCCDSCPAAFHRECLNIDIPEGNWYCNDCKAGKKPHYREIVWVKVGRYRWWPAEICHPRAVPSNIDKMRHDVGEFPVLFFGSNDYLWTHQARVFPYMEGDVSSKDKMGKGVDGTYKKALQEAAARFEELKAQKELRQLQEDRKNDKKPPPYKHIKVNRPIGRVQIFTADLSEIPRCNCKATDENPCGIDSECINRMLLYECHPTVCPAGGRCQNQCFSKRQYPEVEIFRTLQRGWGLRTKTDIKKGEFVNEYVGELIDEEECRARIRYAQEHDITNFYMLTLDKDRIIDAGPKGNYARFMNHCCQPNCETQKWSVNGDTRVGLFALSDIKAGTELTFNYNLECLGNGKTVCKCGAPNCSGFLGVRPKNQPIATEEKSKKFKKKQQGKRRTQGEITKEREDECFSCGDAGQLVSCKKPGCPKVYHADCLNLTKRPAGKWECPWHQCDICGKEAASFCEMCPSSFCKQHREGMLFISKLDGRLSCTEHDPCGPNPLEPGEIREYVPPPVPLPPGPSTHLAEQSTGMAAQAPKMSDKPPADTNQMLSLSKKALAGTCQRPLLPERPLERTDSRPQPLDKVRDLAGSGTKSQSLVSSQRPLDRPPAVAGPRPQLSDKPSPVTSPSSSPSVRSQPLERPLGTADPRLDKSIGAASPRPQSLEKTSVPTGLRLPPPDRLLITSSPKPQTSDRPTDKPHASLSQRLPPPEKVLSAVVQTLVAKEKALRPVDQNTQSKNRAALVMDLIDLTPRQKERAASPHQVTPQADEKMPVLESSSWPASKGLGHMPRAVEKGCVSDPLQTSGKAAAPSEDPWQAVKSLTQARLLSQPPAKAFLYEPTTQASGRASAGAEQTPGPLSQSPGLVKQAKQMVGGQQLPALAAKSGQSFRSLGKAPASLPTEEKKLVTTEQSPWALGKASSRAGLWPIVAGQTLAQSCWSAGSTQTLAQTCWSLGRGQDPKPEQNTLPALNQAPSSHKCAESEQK
The test is described as follows: HotSpot [3H]SAM filter-binding methyltransferase assay. It counts as biochemical.

Test [8] has as its target T6, DNMT3b (Homo sapiens, UniProt Q9UBC3).
T6 construct: residues 2-853, N-terminal GST fusion, insect cell/baculovirus
The description is as above. It counts as biochemical.

The target in test [9] is T2, NSD2 SET domain. In words: SPR Biacore 8K, single-cycle kinetics, […] model. It counts as binding. On the technique in general: Surface plasmon resonance follows binding to a sensor surface in real time, without labels.
Setting [10] is: apparent, super-stoichiometric binding, binder.

Read-outs that look alike come from different tables or passages of the source.

Chain of PRMT7 (Q9NVM4 whole entry): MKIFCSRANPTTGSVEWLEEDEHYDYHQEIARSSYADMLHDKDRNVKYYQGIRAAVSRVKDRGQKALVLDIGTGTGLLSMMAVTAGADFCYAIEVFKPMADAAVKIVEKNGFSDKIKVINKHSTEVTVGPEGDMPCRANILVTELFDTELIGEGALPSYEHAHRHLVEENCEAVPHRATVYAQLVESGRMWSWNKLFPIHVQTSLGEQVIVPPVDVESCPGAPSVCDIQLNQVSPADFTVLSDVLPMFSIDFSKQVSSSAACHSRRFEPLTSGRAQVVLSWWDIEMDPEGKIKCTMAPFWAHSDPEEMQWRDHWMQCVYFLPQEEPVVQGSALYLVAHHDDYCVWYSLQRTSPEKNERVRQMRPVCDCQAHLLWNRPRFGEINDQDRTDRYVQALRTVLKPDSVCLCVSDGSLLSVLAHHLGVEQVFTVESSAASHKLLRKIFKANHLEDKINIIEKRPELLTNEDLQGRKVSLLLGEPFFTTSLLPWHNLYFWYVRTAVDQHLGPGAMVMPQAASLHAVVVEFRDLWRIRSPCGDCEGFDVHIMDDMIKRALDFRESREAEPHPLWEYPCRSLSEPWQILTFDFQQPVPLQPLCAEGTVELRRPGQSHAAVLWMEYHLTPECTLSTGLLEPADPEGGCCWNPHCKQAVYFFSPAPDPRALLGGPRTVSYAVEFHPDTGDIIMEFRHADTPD

With `Cc1ccc(NC2=CC(=O)c3sc(C)nc3C2=O)cc1` [Ryuvidine], the IC50 – broadly, the concentration that gives 50% inhibition – in test [1] was determined as 950 nM.

As for `CN1C(=O)[C@@]23C[C@]4([C@]56C[C@@]78SS[C@@](CO)(C(=O)N7[C@H]5Nc5ccccc56)N(C)C8=O)c5ccccc5N[C@@H]4N2C(=O)[C@]1(CO)SS3` [Chaetocin], the Kd in [2] (apparent, super-stoichiometric binding) came to 20 nM. In addition, the koff (usually the rate constant with which the complex falls apart) in [2] (setting [10]) came out at 4.59e-05 s⁻¹. Also, the kon (commonly the rate constant with which the complex forms) in test [2] (setting [10]) came to 2210 M⁻¹ s⁻¹. Further, the 50% inhibitory concentration (IC50) in test [3] was 90 nM; in test [4] it was 0.1 µM; in test [5] it was 156000 nM; in test [6], 77000 nM.

`Nc1ncnc2c1ncn2[C@@H]1O[C@H](CSCC[C@H](N)C(=O)O)[C@@H](O)[C@H]1O` [SAH, reference compound]: the half-inhibitory concentration (IC50) is 9700 nM in [7] and 65 nM in test [8].

Turning to `C[S+](CC[C@H](N)C(=O)O)C[C@H]1O[C@@H](n2cnc3c(N)ncnc32)[C@H](O)[C@@H]1O` (stereo partly shown) [SAM], the koff in test [2] (read-out: koff) came to 0.017 s⁻¹. In [2] (read-out: kon), the kon came to 4060 M⁻¹ s⁻¹. In [9], this molecule displayed a Kd of 4200 nM.
